According to patent US20220054432A1, “COMPOSITION FOR INCREASING RETENTION OF CAROTENOID IN BLOOD” (ENEOS Corporation, priority 2018, published 2022):
Where two headings read alike, the source gives them in different places.

How the values were obtained:
[1] = test system: 8-OHdG; assay: Measurement of 8-OHdG in blood in mice (Test Example 4); type: in vivo, ICR strain mice; conditions: 300 mg/kg body weight orally once daily for 14 days, ELISA, vs control administration group (olive oil)
Source text: Adonixanthin was used as an asymmetric carotenoid, and astaxanthin was used as a symmetric carotenoid. As experimental animals, ICR strain mice were used. Thirty (30) mice were used, and 10 mice each were assigned to the adonixanthin-administration group, the astaxanthin-administration group, and the control administration group. […]
After end of administration for 14 days, blood was collected from the postcava of the mice under isoflurane absorption anesthesia. […] Thereafter, 8-OHdG of the collected serum was measured using 8-hydroxy 2 deoxyguanosine ELISA Kit (ab201734) (manufactured by Abcam plc.) as an ELISA kit for measurement of 8-OHdG.
Each of the concentration of 8-OHdG in serum collected from the adonixanthin-administration group, and the concentration of 8-OHdG in serum collected from the astaxanthin-administration group, and the concentration of 8-OHdG in serum collected from the control administration group is shown in FIG. 4. The concentration was expressed as mean±standard error. […]

[2] = Transfer into each organ: carotenoid concentration in organs of mice (Test Example 1); type: in vivo, ICR strain mice; conditions: 50 mg/kg orally once daily for 10 days; for concentration at 10 days: ICR, mouse, po, after last administration, mean
Source text: Adonixanthin was used as an asymmetric carotenoid, and astaxanthin was used as a symmetric carotenoid. As experimental animals, ICR strain mice were used. Fourteen (14) mice were used, and 4 mice each were assigned to the adonixanthin-administration group and the astaxanthin-administration group, and 6 mice were assigned to the control administration group. In grouping, each group was constituted so that the mean body weight in each group was as uniform as possible based on the body weight on the day before initiation of administration.
To each experimental group, each of adonixanthin, astaxanthin, and olive oil (product number 150-00276, manufactured by Wako Pure Chemical Industries, Ltd.) was orally administered. In the adonixanthin-administration group and the astaxanthin-administration group, adonixanthin and astaxanthin at a volume of 50 mg/kg body weight were orally administered once daily for 10 days (the day of initiation of administration of the dosing substances was defined as day 1) using a flexible stomach tube. In the control administration group, olive oil at a volume of 0.05 mL/kg body weight was orally administered once daily for 10 days using a flexible stomach tube.
During the administration period, the mice were fed ad libitum a pellet (CE-2, manufactured by CLEA Japan, Inc.) and tap water, and maintained on a 12-h light/dark cycle, at 23±3° C., with a relative humidity of 50±20%.
After blood collection after the last administration, the whole body was perfused with a heparinized lactated Ringer's solution under isoflurane anesthesia, followed by collection of the retina, the heart, the lung, the spleen, the liver, and the kidney. The collected organs were immediately frozen with liquid nitrogen, and were stored at −80° C.
Each of the concentration of adonixanthin in each organ collected from the adonixanthin-administration group (concentration relative to the weight of each organ) and the concentration of astaxanthin in each organ collected from the astaxanthin-administration group (concentration relative to the weight of each organ) was measured. Specifically, each organ was homogenized, and extraction was repeated with acetone until no color occurred. Then, filtration through a filter was performed to evaporate acetone, and diethyl ether:hexane (2:8, v/v) was added to the solution to extract a carotenoid. Furthermore, evaporation to dryness was performed, and the residue was dissolved in acetone:hexane (2:8, v/v) and subjected to HPLC. As the HPLC device, a Hitachi L-6000 intelligent pump and an L-4250 UV-VIS detector were used. The measurement wavelength was 450 nm, and a column of 5 μm Cosmosil 5SL-II (inner diameter of 250×4.6 mm) (manufactured by Nacalai Tesque, Inc.) was used. As the mobile phase, acetone:hexane (2:8, v/v) was used, and measurement was performed at a flow rate of 1.0 mL/min.
In HPLC, the concentration of astaxanthin was measured as a concentration of each of the cis isomer and the trans isomer.
Each of the concentration of adonixanthin in each organ collected from the adonixanthin-administration group and the concentration of astaxanthin in each organ collected from the astaxanthin-administration group is shown in Table 1. The measured value was expressed as mean. From each organ collected from the control administration group, neither adonixanthin nor astaxanthin were detected.

[3] = heart, read-out: Concentration in organ: Heart
[4] = kidney, read-out: Concentration in organ: Kidney
[5] = liver, read-out: Concentration in organ: Liver
[6] = lung, read-out: Concentration in organ: Lung
[7] = spleen, read-out: Concentration in organ: Spleen

| concentration at 10 days [2, 3] | concentration at 10 days [2, 4] | concentration at 10 days [2, 5] | concentration at 10 days [2, 6] | concentration at 10 days [2, 7] | SMILES | Concentration of 8-OHdG in serum, FIG. 4 [1] | Transfer into and retention in each organ (summary of Table 1) [2] |
| --- | --- | --- | --- | --- | --- | --- | --- |
| 124 ng/g | 84.6 ng/g | 109 ng/g | 106 ng/g | 87.8 ng/g | CC1=C(/C=C/C(C)=C/C=C/C(C)=C/C=C/C=C(C)/C=C/C=C(C)/C=C/C2=C(C)C(=O)C(O)CC2(C)C)C(C)(C)CC(O)C1=O (stereo not drawn) [astaxanthin, 3,3′-dihydroxy-β,β-carotene-4,4′-dione] | low | exist in each organ at a high concentration |
| 141 ng/g | 774 ng/g | 1930 ng/g | 1940 ng/g | 277 ng/g | CC1=C(/C=C/C(C)=C/C=C/C(C)=C/C=C/C=C(C)/C=C/C=C(C)/C=C/C2=C(C)C(=O)C(O)CC2(C)C)C(C)(C)CC(O)C1 (stereo not drawn) [adonixanthin, 3,3′-dihydroxy-β,β-caroten-4-one] | significantly lower than that in the control administration group | especially likely to be transferred into each organ and retained therein |
